The subject of this assay is Bacillus subtilis (ATCC #19659) spores. The assay is described as follows: B. subtilis spore viability assay, 15 minutes treatment, with or without serum. The note with it: spore suspension about 1×10^6 cfu/mL, 48 hours incubation at 37° C. on TSA, >500 = too many colonies to count. Type of assay: cell-based. The method, then: To prepare stock cultures of pathogenic spores, 10 mL nutrient broth was inoculated using a stock culture of Bacillus subtilis (ATCC #19659) and incubated on an orbital shaker for 24±2 hours at approximately 150 rpm at 36±1° C. This culture was used to inoculate Tryptic Soy Agar (TSA) plates. Each plate was inoculated with 500 μL of broth culture and the inoculum spread with a sterile L spreader. In addition, the purity of this culture was verified by streaking on TSA plates and incubating plates at 36±1° C. for 24±2 hours. Each plate was wrapped with parafilm. inverted and incubated for 12-14 days at 36±1° C. Following incubation, spores were harvested by adding 10 mL cold sterile water to each plate, the growth removed from the plates using a spreader, and the resulting suspensions were transferred into 15 mL sterile conical tubes. The suspensions were centrifuged at 5,000 rpm (4,500×g) for approximately 10 minutes at room temperature. After removal of the supernatant, the spore pellet was washed by re-suspending pellet with 10 mL cold sterile water and centrifuged at 5,000 rpm (4,500×g) for approximately 10 minutes. This washing step was repeated two more times. The spore pellet was re-suspended with 10 mL sterile water and the spore suspension was stored at 2-5° C. until needed. The spore suspension was stained using stain and the spores examined under the microscope to assess quality of the spores. A minimum of five fields were examined and the ratio of the spores to vegetative cells (or sporangia) was determined. Percentage of spores versus vegetative cells were about 95% spores. Spore titer was determined by preparing serial dilutions, plating the dilutions on TSA plates, incubating plates for 24±2 hours at 36±1° C., and counting the number of colonies formed to determine the titer. The test culture was standardized by using phosphate buffer to achieve a final test culture microbe population of 1.0×10^6 cfu/mL.
Assay samples were set up with or without serum, such as, e.g., Tryptic Soy Broth (TSB) or Bovine Serum (BS). The purpose of the serum was to better simulate the organic load of blood and other tissue which tends to deactivate an antimicrobial agent. In general, assays were conducted by first incubating a pathogen spore sample with a composition disclosed herein for a specified treatment time period, optionally with serum, and then culturing the sample on growth medium to assess spore viability.
In one series of experiments, assays where the samples were treated with serum were set up to contain 100 μL of pathogen spore suspension (containing about 1×10^6 cfu/mL), 50 μL of serum, and 850 μL of a composition described in Example 1. […] The inoculated plates were then incubated at 37° C. for 48 hours and the number of bacterial colonies, if any, counted. […]

Regarding hypochlorous acid [97 ppm HOCl], the “Count (number of bacterial colonies), 5% Serum” value was more than 500 and the “Count (number of bacterial colonies), No Serum” value is reported as 0.
Turning to `O=CCCCC=O` [0.5% Glutaraldehyde, Glutaraldehyde], the “Count (number of bacterial colonies), 5% Serum” value was more than 500 and the “Count (number of bacterial colonies), No Serum” value is more than 500.

(Values after patent US12048307B2, “Compositions, methods and uses for cleaning, disinfecting and/or sterilizing” (Collidion, Inc., priority 2017, dated 2024).)
